{
  "source": "paper PMC5218480",
  "about": "(PLoS ONE, 2017)",
  "system": "MV-4-11 cells",
  "assay": "Gene expression microarray analysis (Affymetrix PrimeView) and GSEA",
  "type": "cell-based, human",
  "design": "RFU PODN (11730768_x_at) / Fold change /veh PODN (11730768_x_at) / RFU LINC00158 (11744669_a_at) / Fold change /veh LINC00158 (11744669_a_at) / RFU DUSP10 (11751237_a_at) / Fold change /veh DUSP10 (11751237_a_at) / RFU ID3 (11757404_x_at) / Fold change /veh ID3 (11757404_x_at) / RFU PLEKHG5 (11737974_s_at) / Fold change /veh PLEKHG5 (11737974_s_at) / RFU LRRC4B (11730491_at) / Fold change /veh LRRC4B (11730491_at) / RFU GIMAP4 (11747438_a_at) / Fold change /veh GIMAP4 (11747438_a_at) / RFU KRT8 (11758183_x_at) / Fold change /veh KRT8 (11758183_x_at) / RFU CNN1 (11734310_a_at) / Fold change /veh CNN1 (11734310_a_at) / RFU VPS37D (11726825_at) / Fold change /veh VPS37D (11726825_at) / RFU C10orf10 (11716522_x_at) / Fold change /veh C10orf10 (11716522_x_at) / RFU KIR2DL2 /// KIR2DL4 /// KIR2DL5A /// KIR2DL5B /// KIR2DS1 /// KIR2DS2 /// KIR2DS3 /// KIR2DS4 /// KIR3DL3 /// KIR3DL3 /// KIR3DS1 (11738374_at) / Fold change /veh KIR2DL2 /// KIR2DL4 /// KIR2DL5A /// KIR2DL5B /// KIR2DS1 /// KIR2DS2 /// KIR2DS3 /// KIR2DS4 /// KIR3DL3 /// KIR3DL3 /// KIR3DS1 (11738374_at) / RFU C1QL1 (11718748_at) / Fold change /veh C1QL1 (11718748_at) / RFU TMPRSS4 (11747572_a_at) / Fold change /veh TMPRSS4 (11747572_a_at) / RFU HAMP (11756126_x_at) / Fold change /veh HAMP (11756126_x_at) / RFU RNFT2 (11725882_a_at) / Fold change /veh RNFT2 (11725882_a_at) / RFU NR4A2 (11747474_a_at) / Fold change /veh NR4A2 (11747474_a_at) / RFU ABCC12 (11746883_a_at) / Fold change /veh ABCC12 (11746883_a_at) / RFU TMEM136 (11760407_x_at) / Fold change /veh TMEM136 (11760407_x_at) / RFU CLDN22 /// WWC2 (11732394_at) / Fold change /veh CLDN22 /// WWC2 (11732394_at) / RFU HLA-DPB1 (11760878_x_at) / Fold change /veh HLA-DPB1 (11760878_x_at) / RFU SPINT1 (11716480_a_at) / Fold change /veh SPINT1 (11716480_a_at) / RFU GAP43 (11754022_s_at) / Fold change /veh GAP43 (11754022_s_at) / RFU A4GNT (11735810_at) / Fold change /veh A4GNT (11735810_at) / RFU PRB3 (11715151_x_at) / Fold change /veh PRB3 (11715151_x_at) / RFU TUBB4B (11761932_at) / Fold change /veh TUBB4B (11761932_at) / RFU CAPN14 (11732068_a_at) / Fold change /veh CAPN14 (11732068_a_at) / RFU TMCC2 (11721928_a_at) / Fold change /veh TMCC2 (11721928_a_at) / RFU IRGQ (11745062_a_at) / Fold change /veh IRGQ (11745062_a_at) / RFU FAM174B (11720279_a_at) / Fold change /veh FAM174B (11720279_a_at) / RFU TMPRSS4 (11748680_a_at) / Fold change /veh TMPRSS4 (11748680_a_at) / RFU FAM212B (11763350_a_at) / Fold change /veh FAM212B (11763350_a_at) / RFU PLEKHG5 (11743358_a_at) / Fold change /veh PLEKHG5 (11743358_a_at) / RFU ZSCAN30 (11745921_a_at) / Fold change /veh ZSCAN30 (11745921_a_at) / RFU CMKLR1 (11741424_a_at) / Fold change /veh CMKLR1 (11741424_a_at) / RFU LOC101060620 /// MAPK8IP1 (11723275_at) / Fold change /veh LOC101060620 /// MAPK8IP1 (11723275_at) / RFU SPTSSB (11747773_x_at) / Fold change /veh SPTSSB (11747773_x_at) / RFU PRSS12 (11739890_at) / Fold change /veh PRSS12 (11739890_at) / RFU BIN1 (11741810_x_at) / Fold change /veh BIN1 (11741810_x_at) / RFU WNT11 (11732464_a_at) / Fold change /veh WNT11 (11732464_a_at) / RFU C10orf10 (11716521_a_at) / Fold change /veh C10orf10 (11716521_a_at) / RFU C5orf56 (11738089_at) / Fold change /veh C5orf56 (11738089_at) / RFU CYB561 (11721691_x_at) / Fold change /veh CYB561 (11721691_x_at) / RFU ANKRD19P (11752326_a_at) / Fold change /veh ANKRD19P (11752326_a_at) / RFU OR2T12 /// OR2T33 /// OR2T8 (11738714_s_at) / Fold change /veh OR2T12 /// OR2T33 /// OR2T8 (11738714_s_at) / RFU VCAN (11748164_a_at) / Fold change /veh VCAN (11748164_a_at) / RFU JSRP1 (11732532_at) / Fold change /veh JSRP1 (11732532_at) / RFU KRTAP10-11 (11738290_x_at) / Fold change /veh KRTAP10-11 (11738290_x_at) / RFU MYO3A (11730013_a_at) / Fold change /veh MYO3A (11730013_a_at) / RFU EBF3 (11725865_a_at) / Fold change /veh EBF3 (11725865_a_at) / RFU CAMK2N1 (11719241_x_at) / Fold change /veh CAMK2N1 (11719241_x_at) / RFU C5orf56 (11738088_a_at) / Fold change /veh C5orf56 (11738088_a_at) / RFU OLFML3 (11715873_a_at) / Fold change /veh OLFML3 (11715873_a_at) / RFU LOC100653217 /// NTM (11731650_a_at) / Fold change /veh LOC100653217 /// NTM (11731650_a_at) / RFU MAPK11 (11762145_a_at) / Fold change /veh MAPK11 (11762145_a_at) / RFU FIZ1 (11724087_x_at) / Fold change /veh FIZ1 (11724087_x_at) / RFU OASL (11726364_x_at) / Fold change /veh OASL (11726364_x_at) / RFU SOX15 (11748057_x_at) / Fold change /veh SOX15 (11748057_x_at) / RFU CD79A (11719716_a_at) / Fold change /veh CD79A (11719716_a_at) / RFU HIST1H1D (11736915_at) / Fold change /veh HIST1H1D (11736915_at) / RFU CASKIN2 (11723855_a_at) / Fold change /veh CASKIN2 (11723855_a_at) / RFU LOC730098 (11760151_x_at) / Fold change /veh LOC730098 (11760151_x_at) / RFU OR4N2 (11742367_at) / Fold change /veh OR4N2 (11742367_at) / RFU PRRT2 (11749266_a_at) / Fold change /veh PRRT2 (11749266_a_at) / RFU SNX32 (11753110_a_at) / Fold change /veh SNX32 (11753110_a_at) / RFU CDHR5 (11726645_a_at) / Fold change /veh CDHR5 (11726645_a_at) / RFU RCAN1 (11760418_a_at) / Fold change /veh RCAN1 (11760418_a_at) / RFU FAM167A (11723789_a_at) / Fold change /veh FAM167A (11723789_a_at) / RFU FAM26E (11764081_at) / Fold change /veh FAM26E (11764081_at) / RFU ISYNA1 (11749810_s_at) / Fold change /veh ISYNA1 (11749810_s_at) / RFU ACY1 (11761880_at) / Fold change /veh ACY1 (11761880_at) / RFU 11764098_at / Fold change /veh 11764098_at / RFU SAMD14 (11745864_x_at) / Fold change /veh SAMD14 (11745864_x_at) / RFU NPB (11741838_a_at) / Fold change /veh NPB (11741838_a_at) / RFU TMPRSS6 (11731388_a_at) / Fold change /veh TMPRSS6 (11731388_a_at) / RFU KRTAP10-2 (11738614_at) / Fold change /veh KRTAP10-2 (11738614_at) / RFU ARHGAP8 /// PRR5-ARHGAP8 (11727945_x_at) / Fold change /veh ARHGAP8 /// PRR5-ARHGAP8 (11727945_x_at) / RFU KRTAP5-7 /// NADSYN1 (11734609_at) / Fold change /veh KRTAP5-7 /// NADSYN1 (11734609_at) / RFU RASL12 (11751679_a_at) / Fold change /veh RASL12 (11751679_a_at) / RFU CDKN2B (11736163_a_at) / Fold change /veh CDKN2B (11736163_a_at) / RFU PRF1 (11729649_at) / Fold change /veh PRF1 (11729649_at) / RFU, ZNF638 /// ZNF638-IT1 / Fold change vs veh, ZNF638 /// ZNF638-IT1 / RFU, PANK3 / Fold change vs veh, PANK3 / RFU, SH3YL1 / Fold change vs veh, SH3YL1 / RFU, ZEB2 / Fold change vs veh, ZEB2 / RFU, NRIP1 / Fold change vs veh, NRIP1 / RFU, PTTG1IP / Fold change vs veh, PTTG1IP / RFU, CAPN2 / Fold change vs veh, CAPN2 / RFU, MED14 / Fold change vs veh, MED14 / RFU, SNORA58 / Fold change vs veh, SNORA58 / RFU, C1orf63 / Fold change vs veh, C1orf63 / RFU, LRRFIP1 / Fold change vs veh, LRRFIP1 / RFU, NDUFAF7 / Fold change vs veh, NDUFAF7 / RFU, SLC12A2 / Fold change vs veh, SLC12A2 / RFU, IBTK / Fold change vs veh, IBTK / RFU, ESF1 / Fold change vs veh, ESF1 / Fold change vs veh, TMEM50B / RFU, TAOK1 / Fold change vs veh, TAOK1 / RFU, ACBD3 / Fold change vs veh, ACBD3 / RFU, TMA16 / Fold change vs veh, TMA16 / RFU, RWDD3 / Fold change vs veh, RWDD3 / RFU, BCAT1 / Fold change vs veh, BCAT1 / RFU, EDEM3 / Fold change vs veh, EDEM3 / RFU, TMEM33 / Fold change vs veh, TMEM33 / RFU, WDR75 / Fold change vs veh, WDR75 / RFU, AHCTF1 / Fold change vs veh, AHCTF1 / RFU, TFRC / Fold change vs veh, TFRC / RFU, ZDHHC17 / Fold change vs veh, ZDHHC17 / RFU, NOM1 / Fold change vs veh, NOM1 / RFU, ARL8B / Fold change vs veh, ARL8B / RFU, ZBTB11 / Fold change vs veh, ZBTB11 / RFU, TAMM41 / Fold change vs veh, TAMM41 / RFU, KIAA1704 /// LOC100996395 / Fold change vs veh, KIAA1704 /// LOC100996395 / RFU, ING1 / Fold change vs veh, ING1 / RFU, TRMT61B / Fold change vs veh, TRMT61B / RFU, FUBP3 / Fold change vs veh, FUBP3 / RFU, TP53 / Fold change vs veh, TP53 / RFU, TNKS2 / Fold change vs veh, TNKS2 / RFU, ZFP14 / Fold change vs veh, ZFP14 / RFU, ACTR2 / Fold change vs veh, ACTR2 / RFU, PPP3R1 / Fold change vs veh, PPP3R1 / RFU, PIK3R1 / Fold change vs veh, PIK3R1 / RFU, HNRNPA1 / Fold change vs veh, HNRNPA1 / RFU, RNF170 / Fold change vs veh, RNF170 / RFU, ZNF28 / Fold change vs veh, ZNF28 / RFU, RNGTT / Fold change vs veh, RNGTT / RFU, OGT / Fold change vs veh, OGT / RFU, BRD1 / Fold change vs veh, BRD1 / RFU, MARS / Fold change vs veh, MARS / RFU, ZNF655 / Fold change vs veh, ZNF655 / RFU, FAHD1 / Fold change vs veh, FAHD1 / RFU, BDP1 / Fold change vs veh, BDP1 / RFU, LRRCC1 / Fold change vs veh, LRRCC1 / RFU, ARID1A / Fold change vs veh, ARID1A / RFU, ZNF146 / Fold change vs veh, ZNF146 / RFU, ZNF330 / Fold change vs veh, ZNF330 / RFU, GPN3 / Fold change vs veh, GPN3 / RFU, C9orf123 / Fold change vs veh, C9orf123 / RFU, N4BP2L2 / Fold change vs veh, N4BP2L2 / RFU, ARFIP1 / Fold change vs veh, ARFIP1 / RFU, FAM179B / Fold change vs veh, FAM179B / RFU, BCL10 / Fold change vs veh, BCL10 / RFU, UHRF1BP1L / Fold change vs veh, UHRF1BP1L / RFU, BET1 / Fold change vs veh, BET1 / RFU, CNOT2 / Fold change vs veh, CNOT2 / RFU, ZNF268 / Fold change vs veh, ZNF268 / Fold change vs veh, ZNF507 / RFU, DGCR2 / Fold change vs veh, DGCR2 / RFU, WDSUB1 / Fold change vs veh, WDSUB1 / Fold change vs veh, HSP90B1 /// MIR3652 / RFU, ADSS / Fold change vs veh, ADSS / RFU, GK / Fold change vs veh, GK / RFU, ZNF148 / Fold change vs veh, ZNF148 / RFU, TAF9 / Fold change vs veh, TAF9 / RFU, SLC1A5 / Fold change vs veh, SLC1A5 / RFU, SLMO2 / Fold change vs veh, SLMO2 / RFU, ABCC4 / Fold change vs veh, ABCC4 / RFU, LOC101060439 /// RAP1B / Fold change vs veh, LOC101060439 /// RAP1B / RFU, RFX7 / Fold change vs veh, RFX7 / RFU, GTPBP10 / Fold change vs veh, GTPBP10 / RFU, CNEP1R1 / Fold change vs veh, CNEP1R1 / RFU, BIVM-ERCC5 /// ERCC5 / Fold change vs veh, BIVM-ERCC5 /// ERCC5 / RFU, ILF3 / Fold change vs veh, ILF3 / RFU 11762660_at / Fold change /veh 11762660_at / RFU VCAN (11757783_s_at) / Fold change /veh VCAN (11757783_s_at) / RFU DDX43 (11728927_at) / Fold change /veh DDX43 (11728927_at) / RFU KRT8 (11758188_x_at) / Fold change /veh KRT8 (11758188_x_at) / RFU NKD1 (11759106_at) / Fold change /veh NKD1 (11759106_at) / RFU SRD5A1 (11742802_a_at) / Fold change /veh SRD5A1 (11742802_a_at) / RFU TPSAB1 /// TPSB2 (11721975_s_at) / Fold change /veh TPSAB1 /// TPSB2 (11721975_s_at) / RFU GSTM3 (11746129_a_at) / Fold change /veh GSTM3 (11746129_a_at) / RFU IL23R (11737362_x_at) / Fold change /veh IL23R (11737362_x_at) / RFU TMEM51 (11727254_a_at) / Fold change /veh TMEM51 (11727254_a_at) / RFU PIWIL2 (11732686_x_at) / Fold change /veh PIWIL2 (11732686_x_at) / RFU ORM1 (11744905_x_at) / Fold change /veh ORM1 (11744905_x_at) / RFU CCDC152 (11743942_at) / Fold change /veh CCDC152 (11743942_at) / RFU ECM1 (11717891_a_at) / Fold change /veh ECM1 (11717891_a_at) / RFU IL23R (11748794_a_at) / Fold change /veh IL23R (11748794_a_at) / RFU TNFAIP8L3 (11732012_x_at) / Fold change /veh TNFAIP8L3 (11732012_x_at) / RFU MBOAT4 (11741988_at) / Fold change /veh MBOAT4 (11741988_at) / RFU 11764193_at / Fold change /veh 11764193_at / RFU TMEM53 (11763286_at) / Fold change /veh TMEM53 (11763286_at) / RFU MAGEB2 (11727129_at) / Fold change /veh MAGEB2 (11727129_at) / RFU TMEM200A (11744735_a_at) / Fold change /veh TMEM200A (11744735_a_at) / RFU CCDC152 (11751479_a_at) / Fold change /veh CCDC152 (11751479_a_at) / RFU FAM211A (11726209_a_at) / Fold change /veh FAM211A (11726209_a_at) / RFU RGS16 (11746705_a_at) / Fold change /veh RGS16 (11746705_a_at) / RFU VCAN (11755009_s_at) / Fold change /veh VCAN (11755009_s_at) / RFU RHOB (11743442_s_at) / Fold change /veh RHOB (11743442_s_at) / RFU RGS16 (11720943_a_at) / Fold change /veh RGS16 (11720943_a_at) / RFU RGS16 (11720944_at) / Fold change /veh RGS16 (11720944_at) / RFU, VPS4B / Fold change vs veh, VPS4B / RFU, CREB1 / Fold change vs veh, CREB1 / RFU, DNAJC13 / Fold change vs veh, DNAJC13 / RFU, GNAQ / Fold change vs veh, GNAQ / RFU, CDK5R1 / Fold change vs veh, CDK5R1 / RFU, ZRANB3 / Fold change vs veh, ZRANB3 / RFU, CUL4A / Fold change vs veh, CUL4A / RFU, CCNY / Fold change vs veh, CCNY / RFU, UFL1 / Fold change vs veh, UFL1 / RFU, COG3 / Fold change vs veh, COG3 / RFU, DIAPH2 / Fold change vs veh, DIAPH2 / RFU, SKA2 / Fold change vs veh, SKA2 / RFU, AFF3 / Fold change vs veh, AFF3 / RFU, LMF1 / Fold change vs veh, LMF1 / RFU, IPO11 / Fold change vs veh, IPO11 / RFU, DFFB / Fold change vs veh, DFFB / RFU, FOXP1 / Fold change vs veh, FOXP1 / RFU, CARD8 / Fold change vs veh, CARD8 / RFU, STRN3 / Fold change vs veh, STRN3 / RFU, ADK / Fold change vs veh, ADK / RFU, RASSF2 / Fold change vs veh, RASSF2 / RFU, WIPF1 / Fold change vs veh, WIPF1 / RFU, LARP1B / Fold change vs veh, LARP1B / RFU, RASA1 / Fold change vs veh, RASA1 / RFU, RB1 / Fold change vs veh, RB1 / RFU, PPFIA1 / Fold change vs veh, PPFIA1 / RFU, MAT2A / Fold change vs veh, MAT2A / RFU, CCT5 / Fold change vs veh, CCT5 / RFU, WDR92 / Fold change vs veh, WDR92 / RFU, CUX1 / Fold change vs veh, CUX1 / RFU, TTC7A / Fold change vs veh, TTC7A / RFU, TMEM135 / Fold change vs veh, TMEM135 / RFU, DEPTOR / Fold change vs veh, DEPTOR / RFU, CPM / Fold change vs veh, CPM / RFU, DNAJB6 / Fold change vs veh, DNAJB6 / RFU, CACNA2D3 / Fold change vs veh, CACNA2D3 / RFU, DTX4 / Fold change vs veh, DTX4 / RFU, TFCP2 / Fold change vs veh, TFCP2 / RFU, GMCL1 /// GMCL1P1 / Fold change vs veh, GMCL1 /// GMCL1P1 / RFU, AEBP2 / Fold change vs veh, AEBP2 / RFU, SNHG1 /// SNORD22 /// SNORD25 /// SNORD26 /// SNORD27 /// SNORD28 /// SNORD29 /// SNORD31 / Fold change vs veh, SNHG1 /// SNORD22 /// SNORD25 /// SNORD26 /// SNORD27 /// SNORD28 /// SNORD29 /// SNORD31 / Fold change (Aza/veh), C12orf56 (ProbeSet 11735607_a_at) / Fold change (ACY-1035/veh), C12orf56 (ProbeSet 11735607_a_at) / Fold change (Aza/veh), FGFR1OP (ProbeSet 11751329_s_at) / Fold change (ACY-1035/veh), FGFR1OP (ProbeSet 11751329_s_at) / Fold change (Aza/veh), VPS36 (ProbeSet 11739960_a_at) / Fold change (ACY-1035/veh), VPS36 (ProbeSet 11739960_a_at) / RFU SYPL1 (11715823_x_at) / Fold change /veh SYPL1 (11715823_x_at) / RFU IGFBP7 (11715501_s_at) / Fold change /veh IGFBP7 (11715501_s_at) / RFU REEP3 (11722064_at) / Fold change /veh REEP3 (11722064_at) / RFU IGLL1 (11728026_x_at) / Fold change /veh IGLL1 (11728026_x_at): dose or concentration left out as unconfirmed",
  "details": "ProbeSet 11727545_at; LIST B",
  "data": [
    {"smiles": "Nc1ccc(-c2cccs2)cc1NC(=O)c1ccc2c(c1)cc(C1CC1)n2CCN1CCOCC1", "note": "[ACY-1035]", "values": [
      {"measurement": "Fold change vs veh, PANK3", "result": 0.83}
    ]}
  ]
}
